In ChEMBL document CHEMBL3817791, “Discovery of 4-(4-aminopyrazolo[1,5-a][1,3,5]triazin-8-yl)benzamides as novel, highly potent and selective, orally bioavailable inhibitors of Tyrosine Threonine Kinase, TTK” (Bioorg Med Chem Lett, 2016):

What was measured:
[1] = target: T1, Dual specificity protein kinase TTK (Homo sapiens, UniProt P33981); experiment: Inhibition of TTK (unknown origin)
T1 sequence (P33981 whole entry): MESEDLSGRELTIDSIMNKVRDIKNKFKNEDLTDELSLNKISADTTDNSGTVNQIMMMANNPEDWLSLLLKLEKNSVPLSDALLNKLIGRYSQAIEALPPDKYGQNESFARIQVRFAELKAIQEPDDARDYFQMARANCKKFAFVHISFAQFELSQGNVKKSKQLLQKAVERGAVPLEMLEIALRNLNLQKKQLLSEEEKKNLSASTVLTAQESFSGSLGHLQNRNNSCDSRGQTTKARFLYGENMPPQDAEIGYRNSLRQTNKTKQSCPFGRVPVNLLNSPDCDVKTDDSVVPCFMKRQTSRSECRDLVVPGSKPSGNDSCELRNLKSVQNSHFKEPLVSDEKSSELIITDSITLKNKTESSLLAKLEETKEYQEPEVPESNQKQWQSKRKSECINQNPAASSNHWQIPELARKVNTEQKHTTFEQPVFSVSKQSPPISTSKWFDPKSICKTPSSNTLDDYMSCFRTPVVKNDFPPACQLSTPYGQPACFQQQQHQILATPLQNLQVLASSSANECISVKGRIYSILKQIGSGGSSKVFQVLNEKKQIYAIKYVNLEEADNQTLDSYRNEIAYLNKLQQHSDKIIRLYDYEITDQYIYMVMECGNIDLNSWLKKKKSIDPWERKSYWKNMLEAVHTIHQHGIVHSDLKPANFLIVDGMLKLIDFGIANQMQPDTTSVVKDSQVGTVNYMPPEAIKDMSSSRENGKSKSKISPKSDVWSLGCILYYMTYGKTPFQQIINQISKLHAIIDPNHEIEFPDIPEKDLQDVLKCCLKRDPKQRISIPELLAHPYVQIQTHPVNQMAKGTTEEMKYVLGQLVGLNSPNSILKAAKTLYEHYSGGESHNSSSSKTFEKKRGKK

[2] = Antiproliferative activity against human OVCAR3 cells; assay type: functional; conditions: OVCAR-3
[3] = Antiproliferative activity against human HCT116 cells; assay type: functional; conditions: HCT-116
MDA-MB-231 = experiment: Antiproliferative activity against human MDA-MB-231 cells; assay type: functional
MDA-MB-468 = experiment: Antiproliferative activity against human MDA-MB-468 cells; assay type: functional
HT-29 = experiment: Antiproliferative activity against human HT-29 cells; assay type: functional
[4] = Antiproliferative activity against human PA1 cells; assay type: functional; conditions: PA-1
[5] = target: Rho-associated protein kinase 2 (Homo sapiens) (UniProt O75116); experiment: Inhibition of recombinant human N-terminal His6-tagged ROCK2 (11 to 552 residues) expressed in baculovirus infected Sf21 cells at 1 uM by radiometric assay relative to control
Rho-associated protein kinase 2 (Homo sapiens), sequence (O75116 whole entry, looked up, the tested form may be a part): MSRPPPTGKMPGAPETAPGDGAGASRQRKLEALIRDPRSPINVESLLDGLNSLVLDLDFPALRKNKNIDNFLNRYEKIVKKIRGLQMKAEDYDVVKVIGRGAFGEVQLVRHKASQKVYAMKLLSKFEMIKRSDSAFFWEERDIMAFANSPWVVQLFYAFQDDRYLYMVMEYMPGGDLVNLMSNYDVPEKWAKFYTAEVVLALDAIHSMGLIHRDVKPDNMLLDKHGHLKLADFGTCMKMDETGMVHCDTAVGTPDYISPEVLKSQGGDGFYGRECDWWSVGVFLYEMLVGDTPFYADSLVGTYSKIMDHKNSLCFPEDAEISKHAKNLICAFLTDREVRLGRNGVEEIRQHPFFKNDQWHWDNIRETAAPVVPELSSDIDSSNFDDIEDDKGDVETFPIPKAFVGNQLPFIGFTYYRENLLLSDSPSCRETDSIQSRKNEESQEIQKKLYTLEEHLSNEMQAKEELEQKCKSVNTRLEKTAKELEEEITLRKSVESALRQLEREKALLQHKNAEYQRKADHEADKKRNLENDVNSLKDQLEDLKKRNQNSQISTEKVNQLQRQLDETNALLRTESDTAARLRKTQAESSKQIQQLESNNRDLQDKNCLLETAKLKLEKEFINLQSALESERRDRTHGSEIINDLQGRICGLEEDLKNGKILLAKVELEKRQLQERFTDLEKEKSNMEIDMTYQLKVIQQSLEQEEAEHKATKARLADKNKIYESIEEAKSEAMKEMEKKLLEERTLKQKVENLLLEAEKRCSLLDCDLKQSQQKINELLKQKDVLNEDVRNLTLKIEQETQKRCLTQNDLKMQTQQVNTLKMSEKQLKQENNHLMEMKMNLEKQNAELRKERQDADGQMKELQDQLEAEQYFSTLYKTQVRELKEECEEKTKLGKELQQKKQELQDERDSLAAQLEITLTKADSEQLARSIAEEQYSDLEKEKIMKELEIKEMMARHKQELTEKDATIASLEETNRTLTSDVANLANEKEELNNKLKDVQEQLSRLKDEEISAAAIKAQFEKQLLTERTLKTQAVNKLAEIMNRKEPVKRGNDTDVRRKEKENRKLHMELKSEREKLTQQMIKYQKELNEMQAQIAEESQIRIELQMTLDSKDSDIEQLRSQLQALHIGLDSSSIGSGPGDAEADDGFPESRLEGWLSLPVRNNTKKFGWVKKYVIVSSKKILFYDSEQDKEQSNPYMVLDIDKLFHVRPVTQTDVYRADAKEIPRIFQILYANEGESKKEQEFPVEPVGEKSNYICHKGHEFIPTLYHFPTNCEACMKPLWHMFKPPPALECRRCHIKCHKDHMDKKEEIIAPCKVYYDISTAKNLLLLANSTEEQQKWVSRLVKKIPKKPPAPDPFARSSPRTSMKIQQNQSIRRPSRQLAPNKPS

[6] = Half life in rat microsomes; assay type: ADME, Microsome
[7] = Half life in human microsomes; assay type: ADME, Microsome
[8] = Half life in mouse microsomes; assay type: ADME, Microsome
Cytochrome P450 3A4 = Cytochrome P450 3A4 (Homo sapiens, UniProt P08684); experiment: Inhibition of CYP3A4 (unknown origin); assay type: ADME
Cytochrome P450 3A4, sequence (P08684 whole entry): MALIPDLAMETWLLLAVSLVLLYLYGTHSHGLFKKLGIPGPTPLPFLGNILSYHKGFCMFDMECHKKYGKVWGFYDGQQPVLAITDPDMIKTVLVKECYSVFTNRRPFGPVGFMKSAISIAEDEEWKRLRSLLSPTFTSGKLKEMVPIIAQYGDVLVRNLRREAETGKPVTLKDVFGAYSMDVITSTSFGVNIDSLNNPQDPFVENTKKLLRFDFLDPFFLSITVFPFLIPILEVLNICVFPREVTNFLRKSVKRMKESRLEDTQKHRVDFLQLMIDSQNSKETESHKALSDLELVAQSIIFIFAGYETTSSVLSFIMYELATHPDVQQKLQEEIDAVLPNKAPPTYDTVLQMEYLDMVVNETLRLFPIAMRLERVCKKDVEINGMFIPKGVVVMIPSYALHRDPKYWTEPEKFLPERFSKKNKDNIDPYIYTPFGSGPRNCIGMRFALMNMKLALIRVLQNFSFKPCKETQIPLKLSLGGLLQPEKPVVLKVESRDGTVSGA

[9] = AUC in mouse at 10 mg/kg, po; assay type: ADME, organism-based; conditions: in vivo
[10] = Cmax in mouse at 10 mg/kg, po; assay type: ADME, organism-based; set-up: dose 10 mg/kg, route oral; conditions: in vivo
[11] = substrate: Cc1cc(-c2cnn3c(NCC4CCOCC4)nc(Oc4ccccc4)nc23)ccc1C(=O)NC1CC1; conditions: Homo sapiens
Description: Inhibition of TTK (unknown origin) assessed as substrate Km(app) at 7.5 nM by double reciprocal plot analysis (Rvb = 8.4 uM)

[12] = substrate: Cc1cc(-c2cnn3c(NCC4CCOCC4)nc(Oc4ccccc4)nc23)ccc1C(=O)NC1CC1; conditions: Homo sapiens; remark: listed apart in the source
Description: Inhibition of TTK (unknown origin) assessed as substrate Km(app) at 1.5 nM by double reciprocal plot analysis (Rvb = 8.4 uM)

[13] = substrate: Cc1cc(-c2cnn3c(NCC4CCOCC4)nc(Oc4ccccc4)nc23)ccc1C(=O)NC1CC1; conditions: Homo sapiens; remark: listed apart in the source
Description: Inhibition of TTK (unknown origin) assessed as substrate Km(app) at 4.5 nM by double reciprocal plot analysis (Rvb = 8.4 uM)

CC(C)C(=O)Nc1ccc(-c2cnn3c(NCC4CCOCC4)nc(OC4CCCC4)nc23)cc1
IC50 [1]: 1700 nM

O=C(NC1CC1)c1ccc(-c2cnn3c(NCC4CCOCC4)nc(Oc4ccccc4)nc23)cc1Cl
IC50 [1]: 1.7 nM
GI50 [2]: 400 nM
GI50 [3]: 160 nM
GI50 (MDA-MB-231): 230 nM

O=C(NC1CC1)c1ccc(-c2cnn3c(NCC4CCOCC4)nc(Oc4ccccc4)nc23)cc1
IC50 [1]: 4.9 nM
GI50 [2]: 910 nM
GI50 [3]: 200 nM
GI50 (MDA-MB-231): 350 nM

O=C(NC1CC1)c1ccc(-c2cnn3c(NCC4CCOCC4)nc(NC4CCCC4)nc23)cc1F
IC50 [1]: 7 nM
GI50 [2]: 1700 nM
GI50 [3]: 850 nM
GI50 (MDA-MB-231): 1400 nM

COCCNc1nc(Oc2ccccc2)nc2c(-c3ccc(C(=O)NC4CC4)cc3)cnn12
IC50 [1]: 14 nM

O=C(NC1CC1)c1ccc(-c2cnn3c(NCC4CCOCC4)nc(N4CCOCC4)nc23)cc1Cl
IC50 [1]: 32 nM
GI50 [2]: 70 nM
GI50 [3]: 440 nM
GI50 (MDA-MB-231): 450 nM

CC(=O)Nc1cccc(Oc2nc(NCC3CCOCC3)n3ncc(-c4ccc(C(=O)NC5CC5)c(C)c4)c3n2)c1
IC50 [1]: 8.4 nM
GI50 [2]: 1200 nM
GI50 [3]: 1300 nM
GI50 (MDA-MB-231): 1600 nM

Cc1cc(-c2cnn3c(NCCN4CCOCC4)nc(Oc4cccc(F)c4F)nc23)ccc1C(=O)NC1CC1
GI50 (MDA-MB-468): 150 nM
IC50 [1]: 2.2 nM
GI50 (HT-29): 21 nM
GI50 [2]: 170 nM
GI50 [4]: 17 nM
GI50 [3]: 14 nM
GI50 (MDA-MB-231): 40 nM

O=C(NC1CC1)c1ccc(-c2cnn3c(NCC4CCOCC4)nc(NC4CCCC4)nc23)cc1
IC50 [1]: 10 nM
GI50 [2]: 1700 nM
GI50 [3]: 390 nM
GI50 (MDA-MB-231): 690 nM

O=C(N[C@@H](c1ccccn1)C1CC1)c1ccc2[nH]nc(-c3ccc(N4C5CCC4CC(O)C5)cc3)c2c1 (stereo not given in full)
inhibition [5]: 50%

CC(C)NC(=O)c1ccc(-c2cnn3c(NCC4CCOCC4)nc(OC4CCCC4)nc23)cc1
IC50 [1]: 230 nM

Cc1cc(-c2cnn3c(NCC4CCOCC4)nc(NC4CCCCC4)nc23)ccc1C(=O)NC1CC1
IC50 [1]: 2.6 nM
GI50 [2]: 470 nM
GI50 [3]: 170 nM
GI50 (MDA-MB-231): 270 nM

Cc1cc(-c2cnn3c(NCC4CCOCC4)nc(Nc4ccccc4)nc23)ccc1C(=O)NC1CC1
IC50 [1]: 11 nM
GI50 [2]: 1700 nM
GI50 [3]: 690 nM
GI50 (MDA-MB-231): 1200 nM

Cc1cc(-c2cnn3c(NCC4CCOCC4)nc(NC4CCOCC4)nc23)ccc1C(=O)NC1CC1
IC50 [1]: 9 nM
GI50 [2]: 780 nM
GI50 [3]: 280 nM
GI50 (MDA-MB-231): 540 nM

Cc1cc(-c2cnn3c(NCC4CCOCC4)nc(NC4CCCC4)nc23)ccc1C(=O)NC1CC1
GI50 (MDA-MB-468): 320 nM
half-life [6]: 11 min
half-life [7]: > 60 min
GI50 (HT-29): 84 nM
GI50 [2]: 480 nM
half-life [8]: 14 min
GI50 [4]: 53 nM
GI50 [3]: 130 nM
GI50 (MDA-MB-231): 170 nM
IC50 (Cytochrome P450 3A4): 19000 nM

Cc1cc(-c2cnn3c(NCC4CCOCC4)nc(Oc4cccc(F)c4F)nc23)ccc1C(=O)NC1CC1
half-life [6]: 40 min
AUC [9]: 4000 ng·h/mL
half-life [7]: > 60 min
IC50 [1]: 0.4 nM
GI50 [2]: 37 nM
half-life [8]: 28 min
Cmax [10]: 1600 ng/mL
GI50 [3]: 9 nM
GI50 (MDA-MB-231): 12 nM
IC50 (Cytochrome P450 3A4): > 20000 nM

CN(c1nc(NCC2CCOCC2)n2ncc(-c3ccc(C(=O)NC4CC4)c(F)c3)c2n1)C1CCCCC1
IC50 [1]: 15 nM

O=C(NC1CC1)c1ccc(-c2cnn3c(NCCN4CCOCC4)nc(Oc4ccccc4)nc23)cc1
IC50 [1]: 24 nM
GI50 [2]: 410 nM
GI50 [3]: 880 nM
GI50 (MDA-MB-231): 960 nM

Cc1cc(-c2cnn3c(NCC4CCOCC4)nc(NC4CCCC4)nc23)ccc1NC(=O)C1CC1
IC50 [1]: 2000 nM

Cc1cc(-c2cnn3c(NCC4CCOCC4)nc(OC4CCCC4)nc23)ccc1C(=O)NC1CC1
IC50 [1]: 2.3 nM
GI50 [2]: 590 nM
GI50 [3]: 160 nM
GI50 (MDA-MB-231): 230 nM

B1: Dual specificity protein kinase TTK (Homo sapiens), P33981 (protein)
chain: MESEDLSGRELTIDSIMNKVRDIKNKFKNEDLTDELSLNKISADTTDNSGTVNQIMMMANNPEDWLSLLLKLEKNSVPLSDALLNKLIGRYSQAIEALPPDKYGQNESFARIQVRFAELKAIQEPDDARDYFQMARANCKKFAFVHISFAQFELSQGNVKKSKQLLQKAVERGAVPLEMLEIALRNLNLQKKQLLSEEEKKNLSASTVLTAQESFSGSLGHLQNRNNSCDSRGQTTKARFLYGENMPPQDAEIGYRNSLRQTNKTKQSCPFGRVPVNLLNSPDCDVKTDDSVVPCFMKRQTSRSECRDLVVPGSKPSGNDSCELRNLKSVQNSHFKEPLVSDEKSSELIITDSITLKNKTESSLLAKLEETKEYQEPEVPESNQKQWQSKRKSECINQNPAASSNHWQIPELARKVNTEQKHTTFEQPVFSVSKQSPPISTSKWFDPKSICKTPSSNTLDDYMSCFRTPVVKNDFPPACQLSTPYGQPACFQQQQHQILATPLQNLQVLASSSANECISVKGRIYSILKQIGSGGSSKVFQVLNEKKQIYAIKYVNLEEADNQTLDSYRNEIAYLNKLQQHSDKIIRLYDYEITDQYIYMVMECGNIDLNSWLKKKKSIDPWERKSYWKNMLEAVHTIHQHGIVHSDLKPANFLIVDGMLKLIDFGIANQMQPDTTSVVKDSQVGTVNYMPPEAIKDMSSSRENGKSKSKISPKSDVWSLGCILYYMTYGKTPFQQIINQISKLHAIIDPNHEIEFPDIPEKDLQDVLKCCLKRDPKQRISIPELLAHPYVQIQTHPVNQMAKGTTEEMKYVLGQLVGLNSPNSILKAAKTLYEHYSGGESHNSSSSKTFEKKRGKK
Km [11]: 63.4 µM
Km [12]: 17.4 µM
Km [13]: 39 µM
